Legend:
Type in all cases: in vivo
[1] = test system: Ipomoea hederacea (IPOHE); assay: Pre-emergence herbicidal glasshouse test on Ipomoea hederacea; details: for PRE Application IPOHE herbicidal damage (five point scale): pre-emergence, 1000 g/h, evaluated after 13 days
In short: (§1)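 Scored on a five-point scale (1 = 0-19% to 5 = 80-100% damage) 13 days after treatment. Application rate 1000 g/h in acetone/water (50:50) containing 0.5% Tween 20, sprayed one day post-sowing for pre-emergence or eight days for post-emergence; glasshouse at 24/16° C, 14 h light, 65% humidity.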

[2] = test system: Alopecurus myosuroides (ALOMY); assay: Pre-emergence herbicidal glasshouse test on Alopecurus myosuroides; details: for PRE Application ALOMY herbicidal damage (five point scale): pre-emergence, 1000 g/h, evaluated after 13 days
In short: as §1

Solanum nigrum (SOLNI) [3] = assay: Post-emergence herbicidal glasshouse test on Solanum nigrum; details: for POST Application SOLNI herbicidal damage (five point scale): post-emergence, 1000 g/h, evaluated after 13 days
In short: as §1

[4] = test system: Echinochloa crus-galli (ECHCG); assay: Pre-emergence herbicidal glasshouse test on Echinochloa crus-galli; details: for PRE Application ECHCG herbicidal damage (five point scale): pre-emergence, 1000 g/h, evaluated after 13 days
In short: as §1

Setaria faberi (SETFA) [5] = assay: Pre-emergence herbicidal glasshouse test on Setaria faberi; details: for PRE Application SETFA herbicidal damage (five point scale): pre-emergence, 1000 g/h, evaluated after 13 days
In short: as §1

Solanum nigrum (SOLNI) [6] = assay: Pre-emergence herbicidal glasshouse test on Solanum nigrum; details: for PRE Application SOLNI herbicidal damage (five point scale): pre-emergence, 1000 g/h, evaluated after 13 days
In short: as §1

[7] = test system: Amaranthus retoflexus (AMARE); assay: Pre-emergence herbicidal glasshouse test on Amaranthus retoflexus; details: for PRE Application AMARE herbicidal damage (five point scale): pre-emergence, 1000 g/h, evaluated after 13 days
In short: as §1

[8] = test system: Alopecurus myosuroides (ALOMY); assay: Post-emergence herbicidal glasshouse test on Alopecurus myosuroides; details: for POST Application ALOMY herbicidal damage (five point scale): post-emergence, 1000 g/h, evaluated after 13 days
In short: as §1

[9] = test system: Amaranthus retoflexus (AMARE); assay: Post-emergence herbicidal glasshouse test on Amaranthus retoflexus; details: for POST Application AMARE herbicidal damage (five point scale): post-emergence, 1000 g/h, evaluated after 13 days
In short: as §1

Setaria faberi (SETFA) [10] = assay: Post-emergence herbicidal glasshouse test on Setaria faberi; details: for POST Application SETFA herbicidal damage (five point scale): post-emergence, 1000 g/h, evaluated after 13 days
In short: as §1

[11] = test system: Echinochloa crus-galli (ECHCG); assay: Post-emergence herbicidal glasshouse test on Echinochloa crus-galli; details: for POST Application ECHCG herbicidal damage (five point scale): post-emergence, 1000 g/h, evaluated after 13 days
In short: as §1

[12] = test system: Ipomoea hederacea (IPOHE); assay: Post-emergence herbicidal glasshouse test on Ipomoea hederacea; details: for POST Application IPOHE herbicidal damage (five point scale): post-emergence, 1000 g/h, evaluated after 13 days
In short: as §1

Compound | PRE Application IPOHE herbicidal damage (five point scale) [1] | PRE Application ALOMY herbicidal damage (five point scale) [2] | POST Application SOLNI herbicidal damage (five point scale) (Solanum nigrum (SOLNI) [3]) | PRE Application ECHCG herbicidal damage (five point scale) [4] | PRE Application SETFA herbicidal damage (five point scale) (Setaria faberi (SETFA) [5]) | PRE Application SOLNI herbicidal damage (five point scale) (Solanum nigrum (SOLNI) [6]) | PRE Application AMARE herbicidal damage (five point scale) [7] | POST Application ALOMY herbicidal damage (five point scale) [8] | POST Application AMARE herbicidal damage (five point scale) [9] | POST Application SETFA herbicidal damage (five point scale) (Setaria faberi (SETFA) [10]) | POST Application ECHCG herbicidal damage (five point scale) [11] | POST Application IPOHE herbicidal damage (five point scale) [12] | further results
CCn1ncc(-c2cc3cccnc3nc2C(F)(F)F)c(O)c1=O [Compound 5.001] | 5 (5=80-100% damage) | 5 (5=80-100% damage) | 5 (5=80-100% damage) | 5 (5=80-100% damage) | 5 (5=80-100% damage) | 5 (5=80-100% damage) | 5 (5=80-100% damage) | 5 (5=80-100% damage) | 5 (5=80-100% damage) | 5 (5=80-100% damage) | 5 (5=80-100% damage) | 5 (5=80-100% damage) | –
Cn1ncc(-c2cc(Cl)ccc2Cl)c(O)c1=O [Compound 1.099] | 1 (1=0-19% damage) | 1 (1=0-19% damage) | 2 (2=20-39% damage) | 1 (1=0-19% damage) | 1 (1=0-19% damage) | 1 (1=0-19% damage) | 1 (1=0-19% damage) | 1 (1=0-19% damage) | 3 (3=40-59% damage) | 1 (1=0-19% damage) | 1 (1=0-19% damage) | 2 (2=20-39% damage) | –
CC(C)N(C)S(=O)(=O)c1nc(C(F)(F)F)ccc1-c1cnn(C)c(=O)c1O [Compound 4.017] | 5 (5=80-100% damage) | 4 (4=60-79% damage) | 5 (5=80-100% damage) | 5 (5=80-100% damage) | 4 (4=60-79% damage) | 5 (5=80-100% damage) | 5 (5=80-100% damage) | 5 (5=80-100% damage) | 5 (5=80-100% damage) | 5 (5=80-100% damage) | 5 (5=80-100% damage) | 5 (5=80-100% damage) | –
Cn1ncc(-c2ccc(S(C)(=O)=O)cc2Cl)c(O)c1=O [Compound 1.105] | 1 (1=0-19% damage) | 2 (2=20-39% damage) | 5 (5=80-100% damage) | 5 (5=80-100% damage) | 2 (2=20-39% damage) | 4 (4=60-79% damage) | 5 (5=80-100% damage) | 2 (2=20-39% damage) | 5 (5=80-100% damage) | 1 (1=0-19% damage) | 5 (5=80-100% damage) | 5 (5=80-100% damage) | –
Cc1ccc(Cl)cc1-n1c(-c2cccc(F)c2)ncc(-c2cnn(C)c(=O)c2O)c1=O [Compound 10.004] | – | – | – | – | – | – | – | – | – | – | – | – | PRE Application IPOHE ([1]; pre-emergence application, Ipomoea hederacea, damage score 1-5): 1 (1=0-19% damage); PRE Application ALOMY ([2]; pre-emergence application, Alopecurus myosuroides, damage score 1-5): 1 (1=0-19% damage); POST Application SOLNI (Solanum nigrum (SOLNI) [3]; post-emergence application, Solanum nigrum, damage score 1-5): 5 (5=80-100% damage); PRE Application ECHCG ([4]; pre-emergence application, Echinochloa crus-galli, damage score 1-5): 1 (1=0-19% damage); PRE Application SETFA (Setaria faberi (SETFA) [5]; pre-emergence application, Setaria faberi, damage score 1-5): 1 (1=0-19% damage); PRE Application SOLNI (Solanum nigrum (SOLNI) [6]; pre-emergence application, Solanum nigrum, damage score 1-5): 1 (1=0-19% damage); PRE Application AMARE ([7]; pre-emergence application, Amaranthus retoflexus, damage score 1-5): 2 (2=20-39% damage); POST Application ALOMY ([8]; post-emergence application, Alopecurus myosuroides, damage score 1-5): 1 (1=0-19% damage); POST Application AMARE ([9]; post-emergence application, Amaranthus retoflexus, damage score 1-5): 5 (5=80-100% damage); POST Application SETFA (Setaria faberi (SETFA) [10]; post-emergence application, Setaria faberi, damage score 1-5): 3 (3=40-59% damage); POST Application ECHCG ([11]; post-emergence application, Echinochloa crus-galli, damage score 1-5): 4 (4=60-79% damage); POST Application IPOHE ([12]; post-emergence application, Ipomoea hederacea, damage score 1-5): 4 (4=60-79% damage)
Cc1c(-c2cnn(C3CC3)c(=O)c2O)ccc(S(C)(=O)=O)c1C1=NOCC1 [Compound 1.008, 2-cyclopropyl-5-[3-(4,5-dihydroisoxazol-3-yl)-2-methyl-4-methylsulfonyl-phenyl]-4-hydroxy-pyridazin-3-one] | 3 (3=40-59% damage) | 4 (4=60-79% damage) | 5 (5=80-100% damage) | 5 (5=80-100% damage) | 4 (4=60-79% damage) | 5 (5=80-100% damage) | 4 (4=60-79% damage) | 5 (5=80-100% damage) | 5 (5=80-100% damage) | 5 (5=80-100% damage) | 5 (5=80-100% damage) | 5 (5=80-100% damage) | –
CSc1ccc(-c2c(C(F)(F)F)ccn(-c3cnn(C)c(=O)c3O)c2=O)cc1 [Compound 7.036] | 4 (4=60-79% damage) | 2 (2=20-39% damage) | 5 (5=80-100% damage) | 1 (1=0-19% damage) | 2 (2=20-39% damage) | 5 (5=80-100% damage) | 5 (5=80-100% damage) | 2 (2=20-39% damage) | 5 (5=80-100% damage) | 3 (3=40-59% damage) | 4 (4=60-79% damage) | 4 (4=60-79% damage) | –
Cn1ncc(-n2ccc(C(F)(F)F)c(-c3cncnc3)c2=O)c(O)c1=O [Compound 1.024] | 4 (4=60-79% damage) | 1 (1=0-19% damage) | 5 (5=80-100% damage) | 2 (2=20-39% damage) | 1 (1=0-19% damage) | 1 (1=0-19% damage) | 5 (5=80-100% damage) | 1 (1=0-19% damage) | 5 (5=80-100% damage) | 3 (3=40-59% damage) | 2 (2=20-39% damage) | 4 (4=60-79% damage) | –
CC(C)S(=O)(=O)c1ccccc1-c1cnn(C)c(=O)c1O [Compound 1.044] | 1 (1=0-19% damage) | 5 (5=80-100% damage) | 5 (5=80-100% damage) | 5 (5=80-100% damage) | 5 (5=80-100% damage) | 5 (5=80-100% damage) | 5 (5=80-100% damage) | 5 (5=80-100% damage) | 5 (5=80-100% damage) | 5 (5=80-100% damage) | 5 (5=80-100% damage) | 5 (5=80-100% damage) | –
C=Cc1ccccc1-c1c(C(F)(F)F)ccn(-c2cnn(C)c(=O)c2O)c1=O [Compound 7.034] | 1 (1=0-19% damage) | 2 (2=20-39% damage) | 5 (5=80-100% damage) | 1 (1=0-19% damage) | 1 (1=0-19% damage) | 5 (5=80-100% damage) | 5 (5=80-100% damage) | 1 (1=0-19% damage) | 5 (5=80-100% damage) | 3 (3=40-59% damage) | 3 (3=40-59% damage) | 2 (2=20-39% damage) | –

Source: patent US9693556B2, “Herbicidal pyridazinone derivatives” (SYNGENTA LIMITED, priority 2011, dated 2017)
